Patent publication US7611630B2, “Method and device for evaluation of pharmaceutical compositions” (Bend Research, Inc., priority 2004, dated 2009)
Like-named read-outs stand apart in the source and are kept apart here.

Columns and labels:
[1] = not told, 120 μg/mL
[2] = membrane-permeation test, plasma-treated (hydrophilic feed side) membrane, PBS feed, decanol permeate; assay type: in vitro ADME
Method: A cold plasma was used to treat the feed side of a microporous membrane as follows. An Accurel® PP 1E microporous polypropylene membrane was obtained from Membrana GmbH (Wuppertal, Germany). This membrane has a nominal pore size of 0.1 μm, a thickness of about 92 μm, and a porosity of about 70%. The contact angle of a drop of water placed on the untreated membrane is greater than about 110°.
The membrane was rinsed five times in fresh isopropyl alcohol at room temperature for about 24 hours, for a total rinsing time of about 120 hours, and then allowed to air dry. Prior to treatment, the membrane was rinsed in methanol in a sonicating bath for 1 minute at ambient temperature, and then allowed to air dry at ambient temperature.
A sample of the membrane measuring about 10 cm by about 23 cm was placed into a glass-walled plasma chamber having an inside diameter of about 3 inches (7.5 cm). The membrane was positioned such that the permeate side of the membrane was against the glass wall of the plasma chamber. The atmosphere of the plasma chamber was saturated with water vapor at a pressure of 550 mtorr by placing a shallow tray of water into the chamber prior to reducing the pressure using a vacuum pump.
After achieving a constant pressure in the plasma chamber (about 3 to 5 minutes), the plasma was generated using radio frequency (RF) power inductively coupled into the chamber via annular electrodes. The power on the RF generator was set at 50 watts. The membrane was exposed to the plasma for 45 seconds, after which the power was turned off and the pressure in the chamber increased to ambient using air. The contact angle of a drop of water placed on the surface of the plasma-treated membrane was about 40°. The contact angle of a drop of water placed on the permeate side of the same membrane was greater than about 110°.
The crystalline form of the cholesteryl ester transfer protein (CETP) inhibitor [2R,4S]4-[(3,5-bis-trifluoromethyl-benzyl)-methoxycarbonyl-amino]-2-ethyl-6-trifluoromethyl-3,4-dihydro-2H-quinoline-1-carboxylic acid ethyl ester, also known as torcetrapib (“Drug 1”) was evaluated in a membrane-permeation test. An apparatus similar to the one shown schematically in FIG. 3 was assembled as follows. A permeate reservoir was formed by gluing a sample of the plasma-treated membrane described above to a glass tube having an inside diameter of about 1 inch (2.54 cm) using an epoxy-based glue (LOCTITE® E-30CL HYSOL® from Henkel Loctite Corp, Rocky Hill, Conn.). The feed-side of the membrane was oriented so that it was on the outside of the permeate reservoir, while the permeate-side of the membrane was oriented so that it was on the inside of the reservoir. The glue was allowed to set by placing the permeate reservoir in an oven at 50° C. and 25% relative humidity (RH) overnight. The contact angle of a drop of water on the feed side of the membrane after assembling the permeate reservoir was about 50°. The effective membrane area of the permeate reservoir was about 4.9 cm^2.
[…] […] This is well in excess of the solubility of Drug 1 in water, estimated to be less than about 0.04 μg/mL. The feed solution was mixed on a vortex mixer for about 1 minute.
The apparatus was assembled by first filling the permeate reservoir with the permeate solution. The permeate reservoir, with attached membrane, was placed within a glass feed reservoir about 3.3 cm in diameter such that the membrane was held about 1 cm above the bottom of the feed reservoir, and the membrane was wetted by the permeate solution. The feed reservoir was equipped with a magnetic stir bar and the reservoir was placed on a stir plate and adjusted to a stir rate of 600 rpm. Care was taken to ensure no air bubbles were trapped beneath the feed side of the membrane. Time 0 was taken as the time the permeate reservoir was placed within the feed solution reservoir such that the feed solution contacted the membrane surface. […]

SMILES: CCOC(=O)N1c2ccc(C(F)(F)F)cc2[C@@H](N(Cc2cc(C(F)(F)F)cc(C(F)(F)F)c2)C(=O)OC)C[C@H]1CC [Drug 1, [2R,4S]4-[(3,5-bis-trifluoromethyl-benzyl)-methoxycarbonyl-amino]-2-ethyl-6-trifluoromethyl-3,4-dihydro-2H-quinoline-1-carboxylic acid ethyl ester]
- Maximum Flux of Drug 1 [1]: 0.012 μg/cm^2-min
- maximum flux in solution modeling the fed state relative to MFD solution [1]: 7,6 fold
- Maximum Flux of Drug 1 ([2]; 89 μg/mL added to PBS feed, 80 to 160 minutes): 0.025 μg/cm^2-min
- Maximum Flux of Drug 1 ([2]; 1000 μg/mL added to PBS feed, 90 to 210 minutes): 0.028 μg/cm^2-min
- slope of permeate concentration versus time (least-squares fit) ([2]; 90 to 210 minutes, 1000 μg/mL added to PBS feed): 0.035 μg/mL-min
- Drug 1 Concentration in Permeate ([2]; time 0 min, 89 μg/mL added to PBS feed): 0.0 µg/mL
- Drug 1 Concentration in Permeate ([2]; time 0 min, 1000 μg/mL added to PBS feed, 37° C., average of duplicate tests): 0.0 µg/mL
- Drug 1 Concentration in Permeate ([2]; time 20 min, 89 μg/mL added to PBS feed): 0.0 µg/mL
- Drug 1 Concentration in Permeate ([2]; time 30 min, 1000 μg/mL added to PBS feed): 0.0 µg/mL
- Drug 1 Concentration in Permeate ([2]; time 40 min, 89 μg/mL added to PBS feed): 0.0 µg/mL
- Drug 1 Concentration in Permeate ([2]; time 60 min, 89 μg/mL added to PBS feed): 0.0 µg/mL
- Drug 1 Concentration in Permeate ([2]; time 60 min, 1000 μg/mL added to PBS feed): 0.0 µg/mL
- Drug 1 Concentration in Permeate ([2]; time 80 min, 89 μg/mL added to PBS feed): 1.7 µg/mL
- Drug 1 Concentration in Permeate ([2]; time 90 min, 1000 μg/mL added to PBS feed): 3.3 µg/mL
- Drug 1 Concentration in Permeate ([2]; time 100 min, 89 μg/mL added to PBS feed): 2.2 µg/mL
- Drug 1 Concentration in Permeate ([2]; time 120 min, 89 μg/mL added to PBS feed): 3.0 µg/mL
- Drug 1 Concentration in Permeate ([2]; time 120 min, 1000 μg/mL added to PBS feed): 4.5 µg/mL
- Drug 1 Concentration in Permeate ([2]; time 140 min, 89 μg/mL added to PBS feed): 3.7 µg/mL
- Drug 1 Concentration in Permeate ([2]; time 150 min, 1000 μg/mL added to PBS feed): 6.9 µg/mL
- Drug 1 Concentration in Permeate ([2]; time 160 min, 89 μg/mL added to PBS feed): 4.0 µg/mL
- Drug 1 Concentration in Permeate ([2]; time 210 min, 1000 μg/mL added to PBS feed): 7.4 µg/mL
- Drug 1 Concentration in Permeate ([2]; time 240 min, 1000 μg/mL added to PBS feed): 9.2 µg/mL
- Drug 1 Concentration in Permeate ([2]; time 270 min, 1000 μg/mL added to PBS feed): 11.8 µg/mL
- Drug 1 Concentration in Permeate ([2]; time 300 min, 1000 μg/mL added to PBS feed): 12.2 µg/mL
- Drug 1 Concentration in Permeate ([2]; time 330 min, 1000 μg/mL added to PBS feed): 14.9 µg/mL
- Drug 1 Concentration in Permeate ([2]; time 360 min, 1000 μg/mL added to PBS feed): 13.9 µg/mL
- Drug 1 Concentration in Permeate ([2]; time 390 min, 1000 μg/mL added to PBS feed): 16.9 µg/mL
- Drug 1 Concentration in Permeate ([2]; time 420 min, 1000 μg/mL added to PBS feed): 21.4 µg/mL
- Drug 1 Concentration in Permeate ([2]; time 450 min, 1000 μg/mL added to PBS feed): 21.5 µg/mL
